Laboratory results reported in publication PMC6476181 (ChemMedChem, 2019).

Key:
[1] = test system: cancer cell motility and migration; test: Wound scratch assay; assay type: cell-based
[2] = test system: 57 diverse kinases; test: Kinase selectivity panel of 57 diverse kinases; assay type: biochemical; conditions: 10 µM
[3] = test system: proliferation and viability of cells; test: Trypan blue exclusion, cells treated for 3 days; assay type: cell-based; conditions: comparison against genistein at 10 µM, p < 0.05
[4] = biological target: T1, MEK7 (Homo sapiens, UniProt O14733); conditions: cited from earlier work
T1 sequence (O14733 1-419): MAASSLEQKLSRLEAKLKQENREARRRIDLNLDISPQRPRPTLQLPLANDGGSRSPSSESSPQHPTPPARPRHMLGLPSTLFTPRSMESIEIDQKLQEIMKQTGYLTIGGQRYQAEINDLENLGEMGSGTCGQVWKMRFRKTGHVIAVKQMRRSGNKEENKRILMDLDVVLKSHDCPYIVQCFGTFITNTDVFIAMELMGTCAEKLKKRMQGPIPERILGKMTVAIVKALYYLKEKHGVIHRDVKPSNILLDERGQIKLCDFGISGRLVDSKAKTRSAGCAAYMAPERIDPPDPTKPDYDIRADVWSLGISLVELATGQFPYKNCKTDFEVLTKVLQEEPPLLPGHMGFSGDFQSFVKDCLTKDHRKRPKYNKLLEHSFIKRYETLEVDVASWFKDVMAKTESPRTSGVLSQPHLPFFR

[5] = biological target: T2, MEK4 (Homo sapiens, UniProt P45985); conditions: cited from earlier work
T2 sequence (P45985 1-399): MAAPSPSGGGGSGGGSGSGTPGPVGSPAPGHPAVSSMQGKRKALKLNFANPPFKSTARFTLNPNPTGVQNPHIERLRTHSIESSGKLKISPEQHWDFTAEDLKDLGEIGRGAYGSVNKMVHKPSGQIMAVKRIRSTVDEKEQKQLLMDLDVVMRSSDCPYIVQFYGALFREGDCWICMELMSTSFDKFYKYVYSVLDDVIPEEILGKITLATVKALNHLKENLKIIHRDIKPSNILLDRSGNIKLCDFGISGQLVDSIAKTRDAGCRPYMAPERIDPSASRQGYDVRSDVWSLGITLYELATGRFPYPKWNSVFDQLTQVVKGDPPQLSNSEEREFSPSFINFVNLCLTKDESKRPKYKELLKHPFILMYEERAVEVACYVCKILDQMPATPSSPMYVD

[6] = test system: Cot; conditions: ref 10a; cited from earlier work
[7] = biological target: T2, MEK4; test: TR-FRET displacement of active site tracer; assay type: binding; conditions: 10 µM

Structure (SMILES): O=C(O)c1ccc(-c2n[nH]c3cc(F)ccc23)cc1 [Compound 6ff, 4-(6-fluoro-2H-indazol-3-yl)benzoic acid]
- efficacy in wound scratch assay ([1]; 10 µM): no efficacy
- efficacy in wound scratch assay ([1]; 25 µM): no efficacy
- number of kinases inhibited > 35% out of 57 tested [2]: 12
- S(35) value ([2]; 57 kinases): 0.21
- toxicity (proliferation and viability, trypan blue exclusion) [3]: less toxicity compared to the promiscuous kinase inhibitor genistein

Structure (SMILES): COc1ccc2c(Cc3ccc(O[Si](C)(C)C(C)(C)C)cc3)c3[n+](cc2c1OC)CCc1cc2c(cc1-3)OCO2 [HWY336]
- inhibition of MEK7 [4]: inhibits both MEK4 and MEK7
- inhibition of MEK4 [5]: inhibits both MEK4 and MEK7

Structure (SMILES): O=c1c(-c2ccc(O)c(O)c2)coc2cc(O)ccc12 [THIF, 7, 3’, 4’-trihydroxyisoflavone]
- inhibition of Cot activity [6]: inhibits Cot activity

Structure (SMILES): CN[C@@H]1C[C@H]2O[C@@](C)([C@@H]1OC)n1c3ccccc3c3c4c(c5c6ccccc6n2c5c31)C(=O)NC4 [staurosporine]
- TR-FRET ratio, displacement of tracer bound to MEK4 active site [7]: background levels
